In patent publication US11236102B2, “Oxabicycloheptane prodrugs” (Lixte Biotechnology, Inc., priority 2015, dated 2022):
“Also recorded” adds a separate entry of the source.

What was measured:
[1] = Pharmacokinetic study of 153 (iv, po) in SD rats: 153 and endothal in plasma, liver, brain; type: in vivo, SD rats; details: for Endothal plasma concentration: individual rats
Description: (§1) The blood, liver and brain tissue samples were collected at predetermined times from rats. […] Compound were diluted shortly before use in 4% sodium bicarbonate for sterile injection (this is the standard pediatric solution of NaHCO3 with a pH of about 8.5).
(§2) Compound 153 was freshly prepared by diluting the drugs shortly before use in 4% sodium bicarbonate for sterile injection (this is the standard pediatric solution of NaHCO3 with a pH of about 8.5). The final concentrations of 153 solutions were 0.25 mg/mL. The 153 solutions were administered via iv or po route at dose volume of 5 ml/kg according to the latest body weight. Compound 157 was freshly prepared by diluting the drugs shortly before use in 4% sodium bicarbonate for sterile injection (this is the standard pediatric solution of NaHCO3 with a pH of about 8.5). The final concentrations of 153 solutions were 0.3 mg/mL. The 157 solutions were administered via iv or po route at dose volume of 5 ml/kg according to the latest body weight.
(§3) Twelve (12) female SD rats per group were dosed by iv with 153 or 157. The rats were fasted overnight prior to dosing, with free access to water. Foods were withheld for 2 hours post-dose. Blood, liver and brain tissue samples in two animals each group were collected at each time point, within 10% of the scheduled time for each time point. Two extra animals were used for analytic method development.
(§4) Blood (>0.3 mL) were collected via aorta abdominalis in anaesthetic animals into tubes containing heparin at 15 min, 1, 2, 6, 10 and 24 hours after iv administration. Liver and brain tissues were collected immediately after animal death. The liver and brain tissues were excised and rinsed with cold saline to avoid blood residual. Upon collection, each sample was placed on ice and the blood samples were subsequently centrifuged (4° C., 11000 rpm, 5 min) to separate plasma.
(§5) The obtained plasma, liver and brain tissue samples were stored at −70° C. until LC-MS/MS analysis.
(§6) Two (2) female SD rats per group were dosed by po with 153 or 157. The rats were fasted overnight prior to dosing, with free access to water. Foods were withheld for 2 hours post-dose. Blood samples (>0.3 mL) were collected via aorta abdominalis in anaesthetic animals into tubes containing heparin at 30 min, 1, 2, 6, 10 and 24 hours after po administration.
(§7) To each sample, 20 μL IS-D (for blank samples, 20 μL acetonitrile:water (1:1) was added) and 300 μl acetonitrile was added. The sample mixture was vortexed for approximately 3 min. After centrifugation at 10000 rpm for 5 min at 4° C., 100 μL of the upper layer was transferred to a new tube and added 200 μL 0.4% formic acid in water (pH 6.0). The mixture was vortexed for approximately 3 min before injected onto the LC/MS/MS system for analysis.
(§8) On the day of the assay, the frozen liver and brain samples were thawed unassisted at room temperature. An about 200 mg weighed sample of each thawed tissue was placed into a plastic tube with water (0.6 mL) to facilitate homogenization. Tissue processing was conducted using a homogenizer for approximately 1 min, 200 μl homogenate was transferred into a fresh Eppendorf tube. To each tube, 50 μL IS-D was added and mixed. Then 600 ul acetonitrile was added and the sample mixture was vortexed for approximately 3 min. After centrifugation at 10000 rpm for 5 min at 4° C., 400 μL of the upper layer was transferred to a new tube and evaporate the supernatant to dryness at 35° C. Reconstitute the residue with 200 μL of 0.4% formic acid in water (pH6.0), and vortex for 3 min, submit for LC-MS/MS analysis.
(§9) Frozen unknown plasma samples were completely thawed at room temperature and vortexed thoroughly. With a pipette, 50 μL of plasma was transferred into a 2.0 mL Eppendorf tube. 50 μL of 0.1N HCl and 800 μL ethyl acetate were added into each sample. The sample mixture was vortexed for approximately 3 min.

[2] = Pharmacokinetic study of 157 (iv, po) in SD rats: 157 and endothal in plasma, liver, brain; type: in vivo; parameters: Tmax: dose or concentration left out as unconfirmed; details: for Endothal plasma concentration: individual rats
Description: as §1
as §2, with “The final concentrations of 153 solutions were 0.3 mg/mL.” left out
as §3, §4, §5, §6
as §7, with “sample, 30” for “sample, 20”, “300 ul” for “300 μl”, “water (pH6.0).” for “water (pH 6.0).”
as §8, with “[…]” for “200 μl”, “500” for “600”, “100” for “400”, “(pH 6.0),” for “(pH6.0),”
as §9

[3] = Oral absorption / oral bioavailability of 151 and 100; details: rat, in vivo
[4] = female, Sprague-Dawley, rat, in vivo, iv, 1.5 mg/kg

SMILES | detectability in brain samples ([1]; endothal after single iv 153 at 1.25 mg/kg, 1.25 mg/kg) | Cmax ([1]; female, SD, rat, in vivo, po, 1.25 mg/kg) | AUC ([1]; female, Sprague-Dawley, rat, in vivo, iv, 1.25 mg/kg) | Endothal plasma concentration ([1]; iv administration of 153, 10 hr) | Endothal plasma concentration ([1]; iv administration of 153, 24 hr) | Endothal plasma concentration ([1]; po administration of 153, 10 hr) | AUClast in liver ([1]; rat, in vivo, iv, 1.25 mg/kg) | detectability in brain samples ([2]; endothal after single iv 157 at 1.5 mg/kg, 1.5 mg/kg) | Tmax ([2]; female, SD, rat, in vivo, po) | AUC [2, 4] | Cmax [2, 4] | Endothal plasma concentration ([2]; iv administration of 157, 10 hr) | Endothal plasma concentration ([2]; iv administration of 157, 24 hr) | Endothal plasma concentration ([2]; po administration of 157, 10 hr) | AUClast in liver ([2]; rat, in vivo, iv, 1.5 mg/kg) | bioavailability [3]
O=C(O)C1C2CCC(O2)C1C(=O)O (stereo not shown) [Endothal, 7-oxabicyclo[2.2.1]heptane-2,3-dicarboxylic acid] | not detectable; also recorded: undetectable | 46.9 ng/mL | 378 ng·h/mL | BLQ | BLQ | BLQ | 10820 ng·h/g | not detectable; also recorded: undetectable | 2 h | 374 ng·h/mL | 3720 ng/mL | BLQ | BLQ | BLQ | 15025 ng·h/g | –
COC(=O)C1C2CCC(O2)C1C(=O)N1CCN(C)CC1 (stereo not shown) [Compound 151] | – | – | – | – | – | – | – | – | – | – | – | – | – | – | – | ~60%
